Reference: paper PMC9598822, “Increased Susceptibility of Mycobacterium tuberculosis to Ethionamide by Expressing PPs-Induced Rv0560c” (Antibiotics, 2022)

Target: Rv2887 (Mycobacterium tuberculosis, UniProt P9WME9)
Test: biochemical

Sequence of Rv2887 (P9WME9 whole entry): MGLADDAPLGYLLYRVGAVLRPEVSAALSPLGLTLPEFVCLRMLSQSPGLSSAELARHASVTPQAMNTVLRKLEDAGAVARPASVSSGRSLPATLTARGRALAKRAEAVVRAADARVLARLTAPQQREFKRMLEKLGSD

| Compound | Kd [µM] |
| --- | --- |
| CCCCOc1ccc2cc(CN3C(=O)CC[C@H]3C(=O)OC)c3cc(OC)c(OC)cc3c2c1 [PP2S] | 250 |
| COC(=O)[C@@H]1CCC(=O)N1Cc1cc2ccc(OC)cc2c2cc(OC)c(OC)cc12 [PP1S] | 274 |
